# What was measured:
# [1] = only with lactic acid and orthophosphoric acid, of the many acids tested; no cyclodextrin; cited from earlier work
# [2] = Stability and water solubility of the crystalline free base (background statement); type: physicochemical
smiles,measurement,setting,value
"CN(C)C1CCN(C(=O)c2ccc(NC(=O)Nc3ccc(-c4nc(N5CCOCC5)nc(N5CCOCC5)n4)cc3)cc2)CC1 [1-(4-{[4-(Dimethylamino)piperidin-1-yl]carbonyl}phenyl)-3-[4-(4,6-dimorpholin-4-yl-1,3,5-triazin-2-yl)phenyl]urea]",concentration achieved as a clear solution,[1],≥ 3000 µg/mL
same,chemically and physically stable for (time),"[2]; crystalline form, 25° C. and 60% Relative Humidity (RH)",up to 3 years
same,water solubility of the free base,[2]; for an aqueous solution formulation for intravenous or parenteral administration at therapeutic dosage levels,insufficiently water soluble

# Source: patent publication US12109308B2, “Aqueous formulation comprising 1-(4-{[4-(dimethylamino)piperidin-1-yljcarbonyl}phenyl)-3-[4-(4,6-dimorpholin-4-yl-1,3,5-triazin-2-yl)phenyl]urea” (Pfizer Inc., priority 2018, dated 2024)
